Assay results from patent US6355785B1, “Guanosine-rich oligonucleotide integrase inhibitors” (Aronex Pharmaceuticals, Inc., priority 1993, dated 2002).

Columns and labels:
[1] = test system: Semliki forest virus
[2] = Repeat-dose monkey study: coagulation parameters (aPTT); format: in vivo, cynomolgus monkeys
Protocol: Hematology and coagulation parameters. Hematology and coagulation parameters were determined 9-11 days prior to the start of the study, just prior to administering doses 1 (day 1) and 12 (day 23), five minutes after dosing (coagulation only), 30 minutes and 4 hours following dosing, one day after the 12th dose (day 24), and in recovery monkeys at sacrifice (day 37). The following were determined: red blood cell count and morphology, total and differential while blood cells, hemoglobin, hematocrit, prothrombin time, fibrinogen, mean cell hemoglobin, mean corpuscular volume, mean corpuscular hemoglobin concentration, platelet count, activate partial thromboplastin time, and D-dime. Hematology was determined at Sierra Nevada Laboratories (Reno, Nev.).

[3] = target: T1, HIV-2 integrase (Human immunodeficiency virus type 2 subtype A, UniProt P04584); assay: HIV-2 integrase 3′-processing assay; format: biochemical; settings: HIV-1 DNA
T1 construct: A plasmid encoding the HIV-2 integrase was generously provided by Dr. R. H. A. Plasterk; made in house

[4] = target: T2, SIV integrase (Simian immunodeficiency virus, UniProt P05896); assay: SIV integrase 3′-processing assay; format: biochemical
T2 construct: Purified recombinant wild-type FIV and SIV integrases were generous gifts; purchased gift of Dr. R. Craigie (NIDDK) (not bought)

[5] = test system: Vesicular Stomatitis virus
[6] = target: HIV-1 integrase (wild-type and deletion mutants) (Human immunodeficiency virus type 1 group M subtype B, UniProt P12497); assay: UV crosslinking DNA binding experiments
Protocol: UV crosslinking experiments. The method used has been described by Engleman et al. Engelman, et al., J. Virol. 68, 5911-5917 (1994). Briefly, integrase (at the indicated concentration) was incubated with substrate in reaction buffer as above for 5 minutes at 30° C. Reactions were then irradiated with a UV transilluminator (254 nm wavelength) from 3 cm above (2.4 mW/cm2) at room temperature for 10 minutes. An equal volume (16 μL) of 2X SDS-PAGE buffer (100 mM Tris, pH 6.8, 4% 2-mercaptoethanol, 4% SDS, 0.2% bromophenol blue, 20% glycerol) was added to each reaction. Twenty μL aliquots were heated at 95° C. for 3 minutes prior to loading on a 12% or 18% SDS-polyacrylamide gel. The gel was run at 120 V for 1.5 hours, dried, and exposed in a Phosphorlmager cassette. […] For the competition experiments (FIG. 29), integrase (200 nM) was preincubated with either the radiolabeled viral DNA substrate (20 nM) or T30177 (20 nM) for 5 minutes at 30° C. prior to the addition of competitor DNA at the indicated concentration.

[7] = set-up: species or system cynomolgus monkeys; settings: cynomolgus monkey, in vivo
Protocol: Serum chemistry parameters. Serum chemistry was determined pre-study, on day 24 (one day after the 12th dose), and on day 37 in the recovery monkeys. The following were determined sodium, potassium, chloride, carbon dioxide, total bilirubin, direct bilirubin, indirect bilirubin alkaline phosphatase, lactate dehydrogenase, aspartate aminotransferase, alanine aminotransferase, gammaglutamyltransferase, calcium, phosphorus, glucose, urea nitrogen, creatinine, uric acid total protein, albumin, globulin, cholesterol and triglycerides. Serum chemistry was determined at Sierra Nevada Laboratories (Reno, Nev.).

[8] = test system: RSV (A2)

T2 sequence (P05896 1156-1448): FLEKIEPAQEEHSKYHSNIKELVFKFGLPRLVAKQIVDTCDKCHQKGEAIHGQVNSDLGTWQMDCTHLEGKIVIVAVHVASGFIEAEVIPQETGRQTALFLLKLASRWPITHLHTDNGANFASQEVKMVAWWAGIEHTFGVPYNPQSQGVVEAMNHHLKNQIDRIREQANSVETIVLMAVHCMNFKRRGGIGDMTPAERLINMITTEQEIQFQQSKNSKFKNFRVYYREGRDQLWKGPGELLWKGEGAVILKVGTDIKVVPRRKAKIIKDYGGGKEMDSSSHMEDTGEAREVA
T1 sequence (P04584 1172-1464): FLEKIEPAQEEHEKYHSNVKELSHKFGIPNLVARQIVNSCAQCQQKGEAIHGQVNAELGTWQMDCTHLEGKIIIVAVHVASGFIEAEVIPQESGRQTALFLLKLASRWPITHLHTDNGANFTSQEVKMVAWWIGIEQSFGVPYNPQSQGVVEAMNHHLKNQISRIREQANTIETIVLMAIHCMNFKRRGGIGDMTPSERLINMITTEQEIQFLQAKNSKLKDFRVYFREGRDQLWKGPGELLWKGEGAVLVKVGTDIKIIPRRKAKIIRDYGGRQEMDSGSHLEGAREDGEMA

Substance: 5′-gtggtgggtgggtgggt-3′ [T30177] (GTGGTGGGTGGGTGGGT; phosphorothioate termini, further chemistry not given here) [pPT version of parent compound I100-15, 17 mer]
- IC50 virus-induced cytopathogenicity ([1]; Semliki forest virus): >200 µg/mL
- MCC minimum concentration altering normal cell morphology ([1]; Semliki forest virus assay): ≧200 μg/mL
- anticoagulation activity (aPTT) ([2]; 2.5 mg/kg): no anticoagulation activity
- mean aPTT relative to pre-dose ([2]; 10 mg/kg, 5 minutes post-dosing, doses 1 and 12): approximately twice the pre-dose value
- mean aPTT ([2]; 40 mg/kg, five minutes after dosing): exceeded the upper limit of the assay
- no effect plasma AR177 concentration versus aPTT ([2]; cynomolgus monkey, in vivo): 60-100 μg AR177/mL
- plasma AR177 concentration at doubling of aPTT ([2]; cynomolgus monkey, in vivo): 100-200 μg AR177/mL
- plasma AR177 concentration at tripling of aPTT ([2]; cynomolgus monkey, in vivo): 220-300 μg AR177/mL

Substance: 5′-gtggtgggtgggtgggt-3′ (GTGGTGGGTGGGTGGGT; phosphorothioate termini, further chemistry not given here) [T30177]
- IC50 [3]: 90 nM
- IC50 [4]: 420 nM
- IC50 virus-induced cytopathogenicity ([5]; Vesicular Stomatitis virus): >200 µg/mL
- MCC minimum concentration altering normal cell morphology ([5]; Vesicular Stomatitis virus assay): 400 μg/mL
- competition of integrase complex by competitor DNA ([6]; competitor in 500-fold excess): could not be competed off
- inhibition of integrase binding to radiolabeled U5 DNA substrate ([6]; enzyme preincubated with oligo): inhibited
- concentration required for DNA-protein complex formation ([6]; radiolabeled T30177): ~20 nM
- binding of IN1-55 (zinc finger domain) ([6]; zinc alone): able to bind
- serum chemistry or urinalysis parameters [7]: no treatment-related changes
- IC50 virus-induced cytopathogenicity ([8]; RSV (A2)): >200 µg/mL
- MCC minimum concentration altering normal cell morphology ([8]; RSV (A2) assay): >400 μg/mL
